Measurements: patent US4835185A, “Immunomodulator for improving commercial performance of domestic animals” (Iowa State University Research Foundation, Inc., priority 1987, dated 1989)
Like-named read-outs stand apart in the source and are kept apart here.

Tests used:
cortisol in plasma = assay: Lamb trials: plasma cortisol; assay type: in vivo, lambs (sheep); conditions: * p<.05
Source text: (§1) The lambs used in Trial 1 consisted of medium-frame crossbred wethers and ewes weighing 26 to 31 kg. The lambs used in Trial 2 consisted of medium-framced crossbred rams weighing 18 to 25 kg. Each animal was raised as a single. The lambs were housed in a temperature controlled room in individual pens with nipple waterers. When received, the lamps were vaccinated for enterotoxemia. They were allowed to adjust to the pens and the environment for 10 days. One day before the trial began, the lambs were sheared and placed on their respective dietary treatments. The lamps were allotted blocking by weight and sex into two dietary treatment groups. Growth and feed consumption were measured bi-weekly. All lamb weights were taken after a 12 to 16 hour fast. The animals were slaughtered at 50 kg in the Iowa State University Meat laboratory facilities at Ames, Iowa. At slaughter, the lamb's internal organs and wool were weighed and sampled, loin eye area and back fat measured, and carcasses separated into fat, lean, and bone.
The SMB (soybean meal-containing) and the CGM (corn-gluten-containing) diets (compositions given in Table A) were fed twice per day in quantities ensuring that feed was before the lambs at all times. The diets were calculated to be equivalent to each other with respect to metabolizable protein, ether extract, fiber, and minerals with the exception of calcium and phosphorus. […] The CGM diet was calculated to contain slightly more energy (TDN 81.7 vs. 79.0, NEm 1.88 v. 1.86, Neg. 1.23 vs. 1.22). […] The soybean meal ingredient contained about 3.5 wt % leucine, while the corn gluten meal ingredient contained about 15 wt % leucine. The CGM diet was therefore higher in leucine than the SBM diet, containing an estimated 16 wt % leucine as compared with an estimated 8 wt % leucine based on total crude protein in the diet.
^(7) Amount of cortisol in plasma (ng/ml).

T lymphocytes = assay: Lamb Trial 2: lymphocyte blastogenesis (3H-thymidine, phytohemaglutinin); assay type: cell-based, lambs (sheep); conditions: 1% KIC, * p<.05
Source text: as §1
^(9) Lymphocyte blastogenesis measured by amount of ^3
H--thymidine incorporated per 2 hrs. of incubation in the presence of
phytohemaglutinin (a mitogen that stimulates Tlymphocyte division).

lymphocytes [1] = assay: Study of Immune Function: lymphocyte blastogenesis, sheep (experiments 1 and 2); assay type: cell-based, lambs (sheep)
Procedure: A study was conducted to determine if KIC administration can alter white blood cell function, specifically T lymphocyte function, in growing sheep and cattle. Eighteen medium-framed crossbred male lambs were used in experiment 1. Lambs were randomly assigned to either a control diet (n=10) or a diet supplemented with 1% KIC (n=8). Animals were fed ad libitum in individual cages. At 100 and 108 days of treatment, 50-ml blood samples were collected for lymphocyte and neutrophil function tests.
In experiment 2, 19 intact crossbred male lambs were randomly assigned to either a saline treatment group (n=9) or a KIC treatment group (n=10). Control lambs were injected with 50 ml of a saline solution, and KIC treated lambs were injected with 50 ml of a 5% solution of KIC (sodium salt) daily (~2.5 g KIC/day). All injections were made intraperitoneally in the right posterior abdominal region after disinfection of the area. At day 60 and day 66 of treatment, blood was collected for lymphocyte and neutrophil function tests.
Sheep in experiments 1 and 2 were fed diets based on a mixture of 48% corn, 5% molasses, 20% alfalfa meal, 0.8% limestone, 0.6% salt-mineral-vitamin mix and ~25% of a protein supplement (either soybean meal, corn gluten meal, or corn gluten feed). The diets were isonitrogenous and analyzed to be ~20% crude protein and 89% dry matter. The KIC diet consisted of the basal diet to which was added 1% calcium-KIC, whereas the control diet was the basal diet plus 0.25% calcium carbonate.
Blood was collected by jugular venapuncture into acid-citrate-dextrose anticoagulant. Lymphocytes and neutrophils were isolated, and lymphocyte blastogenesis and neutrophil function evaluated. KIC was obtained from SOBAC, Paris, France. […] Each experiment was statistically analyzed by analysis of variance. In sheep experiments, individual animals were the experimental units, whereas pen means were analyzed in the cattle experiment.
^1 Background (BKG), phytohemagglutininstimulated (PHA), concanavalin
Astimulated (ConA), and pokeweed mitogenstimulated (PWM) blastogenesis
were determined by measuring the incorporation ^3 H thymidine into

lymphocytes [2] = assay: Study of Immune Function: lymphocyte blastogenesis, cattle (experiment 3); assay type: cell-based, castrated male cattle
[3] = Rumen degradation of KIC (nylon bag technique); set-up: species or system ruminants (rumen)
Source text: KIC pellets were made by mixing zein, ethanol, KIC, limestone, bentonite, and water in a ratio of […]. This mixture was extruded through a die of 15 mm directly into a vat of liquid nitrogen. The shattered pellets were spread out and allowed to air-dry for 2 days. The pellets were coated with zein (2% w/w) by spraying with a 30% zein solution made in 80% ethanol. The pellets again were air-dryed. Control pellets were made similarly to the KIC pellets except that the mixture was zein, limestone, ethanol, bentonite, and water in a ratio of 12:12:7.5:2.7:1. When KIC pellets were placed in the rumen (nylon bag technique), […] of the KIC added was present in the bags after 24 hr of rumen fermentation. It was estimated that uncoated KIC was 95% degraded in the rumen.
Therefore, an attempt was made to protect KIC from ruminal degradation. KIC pellets, resistant to rumen degradation, were made by mixing zein, ethanol, KIC, limestone, bentonite and water in a ratio of 8.3:7.4:5.2:3:2:1. This mixture was extruded through a die of 15 mm directly into a vat of liquid nitrogen. The shattered pellets were spread out and allowed to air-dry for two days. The dried pellets were coated with zein (2% w/w) by spraying with a 30% zein solution made in 80% ethanol. The pellets again were air-dried. Control pellets were made similar to the KIC pellets except that the mixture was zein, limestone, ethanol, bentonite and water in a ratio of 12:12:7.5:2.7:1. When KIC pellets were placed in the rumen (nylon bag technique), 45% of the KIC added was present in the bags after 36 hr of rumen digestion.

[4] = Feedlot steers: death, sickness, condemned livers; assay type: in vivo, steers (cattle)
Source text: Seventy-two medium-frame steers, with an average weight of 578 lbs., were allotted to 12 pens of 6 animals each. A common basal diet was fed ad libitum to all cattle. This consisted of 48.9% cracked corn, 24.4% ground corn cobs, 17.8% expeller Soybean meal, 7.0% molasses (liquid), 1.3% limestone, 0.25% dicalcium phosphate, 2% salt, 0.02% trace mineral premix, and 0.1% vitamin A premix for the first 58 days of the experiment, and was changed to 54.3% cracked corn and 12.8% expeller soybean meal for the remaining 103 days of the experiment. Three pens were assigned to each treatment. The treatments consisted of four levels of Ca-KIC in a pelleted supplement: 0%, 0.02%, 0.07%, and 0.20% of the basal diet (0.05% control pellets, 0.04% KIC pellets, 0.14% KIC pellets, and 0.40% KIC pellets). The pellets were preweighted and top-dressed on the basal diet twice daily. After 58 days, the cattle on the 0.20% KIC were removed from the experiment. The cattle were not implanted with a growth promotant nor were ionophores included in the diet. The cattle were placed in the feedlot and fed a growing ration for 5 weeks prior to the start of the experiment. The cattle were weighed on 2 consecutive days at the beginning and end of the experiment, and every 14 days during the trial. […] Loin eye area and fat thickness over the loin were measured on each carcass. […]

## CC(C)CC(=O)C(=O)O [KIC, alpha-ketoisocaproate]
Cortisol in plasma; Trial 1, CGM diet, 1% KIC (0%: 1.04)
  CORTISOL: amount of cortisol in plasma: .65 ng/mL
Cortisol in plasma; Trial 1, SBM diet, 1% KIC (0%: .99)
  CORTISOL: amount of cortisol in plasma: .83 ng/mL
Cortisol in plasma; Trial 2, CGM diet, 1% KIC (0%: 3.77)
  CORTISOL: amount of cortisol in plasma: 2.43 ng/mL
Cortisol in plasma; Trial 2, SBM diet, 1% KIC (0%: 2.70)
  CORTISOL: amount of cortisol in plasma: 2.25 ng/mL
T lymphocytes; Trial 2, CGM diet, phytohemaglutinin (0%: 6134)
  LYMPHOCYTE BLASTOGENESIS: amount of 3H-thymidine incorporated per 2 hrs. of incubation: 18102
T lymphocytes; Trial 2, SBM diet, phytohemaglutinin (0%: 5993)
  LYMPHOCYTE BLASTOGENESIS: amount of 3H-thymidine incorporated per 2 hrs. of incubation: 14625
Lymphocytes [1]; Exp. 1, oral uncoated KIC 1% (control 466), p<.008
  BKG: background blastogenesis: 852 Counts/min per 2 × 10^5 cells
Lymphocytes [1]; Exp. 1, oral uncoated KIC 1% (control 6100), p<.003
  PHA: phytohemagglutinin-stimulated blastogenesis: 16800 Counts/min per 2 × 10^5 cells
Lymphocytes [1]; Exp. 1, oral uncoated KIC 1% (control 19400), p<.77
  PWM: pokeweed mitogen-stimulated blastogenesis: 17300 Counts/min per 2 × 10^5 cells
Lymphocytes [1]; Exp. 1, oral uncoated KIC 1% (control 41100), p<.81
  ConA: concanavalin A-stimulated blastogenesis: 44700 Counts/min per 2 × 10^5 cells
Lymphocytes [1]; Exp. 2, IP injected KIC (saline 752), p<.10
  BKG: background blastogenesis: 947 Counts/min per 2 × 10^5 cells
Lymphocytes [1]; Exp. 2, IP injected KIC (saline 8500), p<.09
  PHA: phytohemagglutinin-stimulated blastogenesis: 12600 Counts/min per 2 × 10^5 cells
Lymphocytes [1]; Exp. 2, IP injected KIC (saline 21600), p<.72
  PWM: pokeweed mitogen-stimulated blastogenesis: 29400 Counts/min per 2 × 10^5 cells
Lymphocytes [1]; Exp. 2, IP injected KIC (saline 31200), p<.87
  ConA: concanavalin A-stimulated blastogenesis: 33500 Counts/min per 2 × 10^5 cells
Lymphocytes [1]; experiment 1, sheep, oral 1% KIC
  increase of PHA stimulation: 280%
Lymphocytes [1]; experiment 2, sheep, IP
  increase of PHA stimulation: 150%
Lymphocytes [2]; Exp. 3, oral coated 0.02% KIC (control 1410)
  BKG: background blastogenesis: 1550 Counts/min per 2 × 10^5 cells
Lymphocytes [2]; Exp. 3, oral coated 0.02% KIC (control 23100)
  PWM: pokeweed mitogen-stimulated blastogenesis: 27100 Counts/min per 2 × 10^5 cells
Lymphocytes [2]; Exp. 3, oral coated 0.02% KIC (control 40500)
  PHA: phytohemagglutinin-stimulated blastogenesis: 43200 Counts/min per 2 × 10^5 cells
Lymphocytes [2]; Exp. 3, oral coated 0.02% KIC (control 40900)
  ConA: concanavalin A-stimulated blastogenesis: 48800 Counts/min per 2 × 10^5 cells
Lymphocytes [2]; Exp. 3, oral coated 0.07% KIC (control 1410)
  BKG: background blastogenesis: 2080 Counts/min per 2 × 10^5 cells
Lymphocytes [2]; Exp. 3, oral coated 0.07% KIC (control 23100)
  PWM: pokeweed mitogen-stimulated blastogenesis: 38000 Counts/min per 2 × 10^5 cells
Lymphocytes [2]; Exp. 3, oral coated 0.07% KIC (control 40500)
  PHA: phytohemagglutinin-stimulated blastogenesis: 74300 Counts/min per 2 × 10^5 cells
Lymphocytes [2]; Exp. 3, oral coated 0.07% KIC (control 40900)
  ConA: concanavalin A-stimulated blastogenesis: 75400 Counts/min per 2 × 10^5 cells
Lymphocytes [2]; Exp. 3, oral coated 0.20% KIC (control 1410)
  BKG: background blastogenesis: 1690 Counts/min per 2 × 10^5 cells
Lymphocytes [2]; Exp. 3, oral coated 0.20% KIC (control 23100)
  PWM: pokeweed mitogen-stimulated blastogenesis: 30500 Counts/min per 2 × 10^5 cells
Lymphocytes [2]; Exp. 3, oral coated 0.20% KIC (control 40500)
  PHA: phytohemagglutinin-stimulated blastogenesis: 56900 Counts/min per 2 × 10^5 cells
Lymphocytes [2]; Exp. 3, oral coated 0.20% KIC (control 40900)
  ConA: concanavalin A-stimulated blastogenesis: 54400 Counts/min per 2 × 10^5 cells
[3]; "as much as", unprotected, read-out: KIC that may be lost by rumen destruction
  degraded: 90 to 95%
[3]; estimated, Example IV, read-out: uncoated KIC degraded in the rumen
  degraded: 95%
[3]; preliminary experiments, Example VI, read-out: uncoated KIC degraded in the rumen
  degraded: 95%
[4]; KIC-treated groups (control: one died, one treated)
  animals that died or were treated for sickness: no animals
[4]; bovine, in vivo
  condemned liver: one
